The values that follow come from patent US8242085B2, “Tetrahydrofuro [3,4-D] dioxolane compounds for use in the treatment of viral infections and cancer” (BioCryst Pharmaceuticals, Inc., priority 2007, dated 2012).

The data set in a line: in vivo test of prodrug hydrolysis to active compound. The settings on record: tested in vivo.

Regarding `C[C@@]12OC(c3ccc(Cl)cc3)O[C@@H]1[C@@H](CO)O[C@H]2c1coc2c(N)ncnc12` (stereo partly drawn) [Example 1, ((3aR,4R,6S,6aS)-6-(4-Aminofuro[3,2-d]pyrimidin-7-yl)-2-(4-chlorophenyl)-6a-methyltetrahydrofuro[3,4-d][1,3]dioxol-4-yl)methanol], the “hydrolysis of prodrug in vivo” value is reported as “hydrolyzes in vivo to provide an active compound”.
